Reference: patent US8859555B2, “Lysine Specific Demethylase-1 inhibitors and their use” (Oryzon Genomics S.A., priority 2009, dated 2014)
Structures can show the parent of a compound that is named as a salt. Where two headings read alike, the source gives them in different places.

Legend:
[1] = target: T1, Human recombinant monoamine oxidase MAO-A (Homo sapiens, UniProt P21397); experiment: MAO-A kynuramine fluorescence inhibition assay; format: biochemical
T1 construct: purchased Sigma Aldrich
T1 sequence (P21397 1-527): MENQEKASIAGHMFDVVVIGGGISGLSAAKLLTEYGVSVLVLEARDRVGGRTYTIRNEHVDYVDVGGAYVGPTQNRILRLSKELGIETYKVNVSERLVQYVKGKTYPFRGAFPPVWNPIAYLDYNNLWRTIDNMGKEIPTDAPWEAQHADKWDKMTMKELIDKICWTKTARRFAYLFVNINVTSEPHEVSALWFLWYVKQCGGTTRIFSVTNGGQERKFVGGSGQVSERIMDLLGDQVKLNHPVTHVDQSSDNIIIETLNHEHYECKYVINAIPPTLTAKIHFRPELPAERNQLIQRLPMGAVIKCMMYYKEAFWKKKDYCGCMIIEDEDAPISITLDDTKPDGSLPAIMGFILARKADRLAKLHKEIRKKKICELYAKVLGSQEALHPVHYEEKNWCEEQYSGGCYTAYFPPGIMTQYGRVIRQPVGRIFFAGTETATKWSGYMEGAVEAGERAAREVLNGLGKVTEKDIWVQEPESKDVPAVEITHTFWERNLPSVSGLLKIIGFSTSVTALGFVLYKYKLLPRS
Excerpt: (§1) Human recombinant monoamine oxidase proteins MAO-A and MAO-B were purchased from Sigma Aldrich. […] In order to monitor MAO enzymatic activities and/or their inhibition rate by inhibitor(s) of interest, a fluorescent-based (inhibitor)-screening assay was set up. 3-(2-Aminophenyl)-3-oxopropanamine (kynuramine dihydrobromide, Sigma Aldrich), a non fluorescent compound was chosen as a substrate. Kynuramine is a non-specific substrate for both MAOs activities. While undergoing oxidative deamination by MAO activities, kynuramine is converted into 4-hydroxyquinoline (4-HQ), a resulting fluorescent product.
(§2) The monoamine oxidase activity was estimated by measuring the conversion of kynuramine into 4-hydroxyquinoline. Assays were conducted in 96-well black plates with clear bottom (Corning) in a final volume of 100 μL. The assay buffer was 100 mM HEPES, pH 7.5. Each experiment was performed in triplicate within the same experiment.
(§3) Briefly, a fixed amount of MAO (0.25 μg for MAO-A and 0.5 μg for MAO-B) was incubated on ice for 15 minutes in the reaction buffer, in the absence and/or in the presence of various concentrations of inhibitor (e.g., from 0 to 50 μM, depending on the inhibitor strength).
(§4) After leaving the enzyme(s) interacting with the inhibitor, 60 to 90 μM of kynuramine was added to each reaction for MAO-B and MAO-A assay respectively, and the reaction was left for 1 hour at 37° C. in the dark. The oxidative deamination of the substrate was stopped by adding 50 μL (v/v) of NaOH 2N. The conversion of kynuramine to 4-hydroxyquinoline, was monitored by fluorescence (excitation at 320 nm, emission at 360 nm) using a microplate reader (Infinite 200, Tecan). Arbitrary units were used to measure levels of fluorescence produced in the absence and/or in the presence of inhibitor.
(§5) The Ki of each inhibitor was measure at Vmax/2.

[2] = target: T2, Human recombinant monoamine oxidase MAO-B (Homo sapiens, UniProt P27338); experiment: MAO-B kynuramine fluorescence inhibition assay; format: biochemical; conditions: Ki range class
T2 construct: purchased Sigma Aldrich
T2 sequence (P27338 1-520): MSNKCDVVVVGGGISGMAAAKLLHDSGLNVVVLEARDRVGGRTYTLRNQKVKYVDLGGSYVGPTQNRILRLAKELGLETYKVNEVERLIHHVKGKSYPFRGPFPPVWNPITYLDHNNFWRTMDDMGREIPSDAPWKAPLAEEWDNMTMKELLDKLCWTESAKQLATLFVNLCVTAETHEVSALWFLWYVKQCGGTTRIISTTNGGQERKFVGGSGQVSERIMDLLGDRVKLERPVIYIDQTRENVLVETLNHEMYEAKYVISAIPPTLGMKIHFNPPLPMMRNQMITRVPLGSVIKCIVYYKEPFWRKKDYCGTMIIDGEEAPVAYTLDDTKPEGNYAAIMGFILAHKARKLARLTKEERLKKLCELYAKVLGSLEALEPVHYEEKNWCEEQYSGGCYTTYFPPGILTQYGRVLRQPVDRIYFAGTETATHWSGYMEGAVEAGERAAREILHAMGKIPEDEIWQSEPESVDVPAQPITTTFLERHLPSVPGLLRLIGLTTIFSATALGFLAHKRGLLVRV
Excerpt: as §1, §2, §3, §4, §5

[3] = target: T3, Human recombinant LSD1 protein (Homo sapiens, UniProt O60341); experiment: LSD1 inhibition, Amplex Red peroxide/peroxidase-coupled demethylase assay; format: biochemical; conditions: for Ki: Ki range class
T3 construct: purchased BPS Bioscience Inc
Excerpt: Human recombinant LSD1 protein was purchased from BPS Bioscience Inc. In order to monitor LSD1 enzymatic activity and/or its inhibition rate by our inhibitor(s) of interest, di-methylated H3-K4 peptide (Millipore) was chosen as a substrate. The demethylase activity was estimated, under aerobic conditions, by measuring the release of H2O2 produced during the catalytic process, using the Amplex® Red peroxide/peroxidase-coupled assay kit (Invitrogen).
Within the experiment, each concentration of inhibitor was tested in triplicate. […] The enzymatic reactions were set up in a 50 mM sodium phosphate, pH 7.4 buffer. At the end of the incubation, Amplex® Red reagent and horseradish peroxidase (HPR) solution were added to the reaction according to the recommendations provided by the supplier (Invitrogen), and left to incubate for 30 extra minutes at room temperature in the dark. A 1 μM H2O2 solution was used as a control of the kit efficiency. The conversion of the Amplex® Red reagent to resorufin due to the presence of H2O2 in the assay, was monitored by fluorescence (excitation at 540 nm, emission at 590 nm) using a microplate reader (Infinite 200, Tecan). Arbitrary units were used to measure level of H2O2 produced in the absence and/or in the presence of inhibitor.
The maximum demethylase activity of LSD1 was obtained in the absence of inhibitor and corrected for background fluorescence in the absence of LSD1. The Ki of each inhibitor was estimated at half of the maximum activity.

[4] = system: human colon cancer cell line HCT116; experiment: Cancer cell line study, alamarBlue viability assay; format: cell-based; conditions: HCT-116, dose required to inhibit cell growth by 50%, 72 hours, read-out: EC50 value for HCT-116 cells
Method: The human colon cancer cell line HCT116 was obtained from the American Type Culture Collection (ATCC; CCL-247). The HCT116 cell line was maintained in DMEM GlutaMAX (Invitrogen) supplemented with 10% fetal calf serum. Cells were grown in a humidified incubator at 37 C in 5% CO2. Cells were plated in 96-well plates at a density of 6000 cells/well in 100 μl medium 24 h before addition of drugs. They were then added in concentrations from 100 μM to 0.45 nM (each concentration in triplicate). To do so, a drugs-dilution plate at twice the screening concentrations was prepared. 72 hours later, alamarBlue (Biosource, Invitrogen) viability assay was performed following manufacturer's protocol. In brief, alamarBlue diluted in media was added to cells to have a 5% solution. Cells were incubated at 37 C, 3 hours and at room temperature, 30 min. Cells with no drug and, cells with no drug and lysed with triton X-100 were used as controls. Fluorescence was monitored at 530 nm excitation and 590 nm emission wavelengths. Results were quantified using Infinite F200 Microplate Reader (Tecan Group, Ltd.). EC50 were calculated as the dose of drugs required to inhibit cell growth by 50%, with Origin 7.0 computer program.

[5] = Ki range class, read-out: MAO A (Ki)

SMILES	Ki [1, 5] [nM]	Ki [2] [nM]	Ki [3] [nM]	MAO B (Ki) [2]	Ki ([1]; Ki (IC50), in these assays described herein, read-out: Ki for MAO-A) [nM]	MAO A (Ki) ([1]; Ki range class)	Ki value for LSD1 lower than Ki values for MAO-A and MAO-B ([3]; selectivity LSD1 versus MAO-A and MAO-B)	EC50 [4] [nM]
CN(C)[C@H]1CCN(CCN[C@H]2CC2c2ccccc2)C1 (stereo partly drawn) [Example 5, (3S)—N,N-dimethyl-1-(2-{[(trans)-2-phenylcyclopropyl]amino}ethyl)pyrrolidin-3-amine dihydrochloride salt]	> 40000	> 40000						
c1ccc([C@@H]2C[C@H]2NCCNC2CC2)cc1 (relative stereo) [Example 2, N-cyclopropyl-N′-[(trans)-2-phenylcyclopropyl]ethane-1,2-diamine dihydrochloride salt]	1000 to 40000	100 to 1000	100 to 1000					
CN1CCN(CCN[C@@H]2C[C@H]2c2ccccc2)CC1 (relative stereo) [Example 1, N-[2-(4-methylpiperazin-1-yl)ethyl]-N-[(trans)-2-phenylcyclopropyl]amine dihydrochloride salt]	> 40000	1000 to 40000	1 to 100					
CN1CCN(CCN[C@@H]2C[C@H]2c2ccc(-c3cccc(Cl)c3)cc2)CC1 (relative stereo) [Example 12, (Trans)-2-(3′-chlorobiphenyl-4-yl)-N-(2-(4-methylpiperazin-1-yl)ethyl)cyclopropanamine dihydrochloride]		1000 to 40000	1 to 100					
CC(C)CSCCN[C@@H]1C[C@H]1c1ccccc1 (relative stereo) [Example 15, N-(trans)-2-(isobutylthio)-ethyl-2-phenylcyclopropanamine hydrochloride]	1000 to 40000	1000 to 40000	100 to 1000					
CCN(CC)CCN[C@@H]1C[C@H]1c1ccccc1 (relative stereo) [Example 8, N1,N1-diethyl-N2-((trans)-2-phenylcyclopropyl)ethane-1,2-diamine dihydrochloride salt]	1000 to 40000	> 40000	1 to 100					
CN1CCN(CCN[C@@H]2C[C@H]2c2ccc(-c3cccc(C(F)(F)F)c3)cc2)CC1 (relative stereo) [Example 11, (Trans)-N-(2-(4-methylpiperazin-1-yl)ethyl)-2-(3′-(trifluoromethyl)biphenyl-4-yl)cyclopropanamine dihydrochloride]	1000 to 40000	1000 to 40000	1 to 100					

The next lines start with the values.

Ki [1, 5] [nM]	Ki [2] [nM]	Ki [3] [nM]	MAO B (Ki) [2]	Ki ([1]; Ki (IC50), in these assays described herein, read-out: Ki for MAO-A) [nM]	MAO A (Ki) ([1]; Ki range class)	Ki value for LSD1 lower than Ki values for MAO-A and MAO-B ([3]; selectivity LSD1 versus MAO-A and MAO-B)	EC50 [4] [nM]	SMILES
1000 to 40000	1000 to 40000	100 to 1000						CCOCCN[C@@H]1C[C@H]1c1ccccc1 (relative stereo) [Example 16, N-trans-(2-ethoxyethyl)-2-phenylcyclopropanamine hydrochloride]
1000 to 40000		100 to 1000	II, I II					FC(F)(F)c1cccc(-c2ccc([C@@H]3C[C@H]3NCCNC3CC3)cc2)c1 (relative stereo) [Example 14, N^1-cyclopropyl-N^2-((trans)-2-(3′-(trifluoromethyl)biphenyl-4-yl)cyclopropyl)ethane-1,2-diamine]
	> 40000	1 to 100		~40000	I, II			Cl.Cl.c1ccc([C@@H]2C[C@H]2NCCN2CCNCC2)cc1 (relative stereo) [Example 7, N-[(trans)-2-phenylcyclopropyl]-N-(2-piperazin-1-ylethyl)amine dihydrochloride salt]
> 40000	1000 to 40000	100 to 1000						CN(C)CCNCCN[C@@H]1C[C@H]1c1ccccc1 (relative stereo) [Example 3, N,N-dimethyl-N′-(2-{[(trans)-2-phenylcyclopropyl]amino}ethyl)ethane-1,2-diamine]
1000 to 40000	1000 to 40000	100 to 1000						COCCN[C@@H]1C[C@H]1c1ccccc1 (relative stereo) [Example 17, N-trans-(2-methoxyethyl)-2-phenylcyclopropanamine hydrochloride]
1000 to 40000	1000 to 40000	1 to 100						N[C@@H]1CCN(CCN[C@H]2CC2c2ccc(-c3cccc(C(F)(F)F)c3)cc2)C1 (stereo partly drawn) [Example 13, (R)-1-(2-((trans)-2-(3′-(trifluoromethyl)biphenyl-4-yl)cyclopropylamino)ethyl)pyrrolidin-3-amine dihydrochloride]
> 40000	> 40000	1 to 100				more than 100 fold		Cl.Cl.N[C@@H]1CCN(CCN[C@H]2CC2c2ccccc2)C1 (stereo partly drawn) [Example 4, (3R)-1-(2-{[(trans)-2-phenylcyclopropyl]amino}ethyl)pyrrolidin-3-amine dihydrochloride salt]
1000 to 40000	1000 to 40000	1 to 100					~11000	CN1CCN(CCN[C@@H]2C[C@H]2c2ccc(OCc3ccccc3)cc2)CC1 (relative stereo) [Example 10, (trans)-2-(4-(benzyloxy)phenyl)-N-(2-(4-methylpiperazin-1-yl)ethyl)cyclopropanamine dihydrochloride salt]
1000 to 40000	1000 to 40000							CN(C)[C@@H]1CCN(CCN[C@H]2CC2c2ccccc2)C1 (stereo partly drawn) [Example 6, (3R)—N,N-dimethyl-1-(2-{[(trans)-2-phenylcyclopropyl]amino}ethyl)pyrrolidin-3-amine]
> 40000	1000 to 40000	1 to 100						c1ccc([C@@H]2C[C@H]2NCCN2CCCCC2)cc1 (relative stereo) [Example 9, N-[(trans)-2-phenylcyclopropyl]-N-(2-piperidin-1-ylethyl)amine]
